In brackets after ≈: the same amount, converted by molar mass.
Tests used:
Format in all cases: cell-based
[1] = system: Escherichia coli, Proteus vulgaris, Pseudomonas aeruginosas; assay: MIC by broth microdilution (NCCLS) of IsoB0 and reference compounds (Table 44), non-gram-positive bacterial strains
Procedure: (§1) MICs were determined by the broth microdilution methodology following the standard NCCLS procedure, with or without 30% bovine serum, using bacterial inocula of approximately 5×10^5 CFU/mL. Tests were read after 20-24 h incubation at 35° C.

[2] = system: panel of gram-positive bacteria; assay: MIC by broth microdilution (NCCLS) of IsoB0 and reference compounds (Table 44)
Procedure: Müller Hinton broth (Difco Laboratories, Detroit, Mich., USA) adjusted with CaCl2 and MgCl2 to a final concentrations of 20 mg/L and 10 mg/L respectively.
The microorganisms used are reference standard strains from the American Type Culture Collection (ATCC, Rockville, USA), Smith Kline and French Laboratories (SKF) and the Upjohn Company (UC, Kalamazoo, Mich., USA).
as §1

[3] = system: Candida albicans SKF 2270; assay: MIC by broth microdilution (NCCLS) (Tables 42, 44)
[4] = system: gram positive bacteria; assay: MIC by broth microdilution (NCCLS), with or without 30% bovine serum (Table 42)
Procedure: (§2) Before dissolution, each sample was analyzed by HPLC and quantified.
(§3) The microorganisms used were reference strains obtained from the American Type Culture Collection (ATCC) (Rockville, Md.), SmithKline and French Laboratories (SKF), and the Upjohn Company (UC) (Kalamazoo, Mich.).
(§4) MICs were determined by the broth microdilution methodology following the standard NCCLS procedure (NCCLS Document M7-A6, Vol. 23, No. 2, “Methods for dilution antimicrobial susceptibility tests for bacteria that grow aerobically.” Approved Guideline. January 2003, which can be herein incorporated by reference in its entirety), with or without 30% adult bovine serum (BS) (PAA Laboratories GMBH, Haidmannweg Pasching Austria), using bacterial innocula at approximately 5×10^5 CFU/ml. The media employed included cation-adjusted Müller Hinton broth (Difco Laboratories, Detroit, Mich.) that was used that was adjusted with CaCl2 and MgCl2 to a final concentration of 20 mg/L and 10 mg/L, respectively. Tests were read following 20-24 hours of incubation at 35° C.

[5] = system: gram-negative bacteria; assay: MIC by broth microdilution (NCCLS) (Table 42)
Procedure: as §2, §3, §4

[6] = Pseudomonas aeruginosas ATCC 10145
[7] = E. faecalis ATCC29212 ref. strain
[8] = Enterococcus faecalis ATCC 7080
[9] = S. aureus ATCC 29213 ref. strain
[10] = Staphylococcus aureus Smith ATCC 19636
[11] = Streptococcus pyogenes SKF13400
[12] = Candida albicans SKF2270 (Table 44)
[13] = Streptococcus pyrogenes SKF 13400
[14] = Candida albicans SKF 2270 (Table 42)

| Compound | MIC ([1]; E. coli ATCC25922 ref. strain) | MIC ([1]; Escherichia coli SKF 12140) | MIC ([1]; Proteus vulgaris ATCC 881) | MIC [1, 6] | MIC ([2]; Bacillus subtilis ATCC 6633) | MIC [2, 7] | MIC ([4]; Bacillus subtilis ATCC 6633) | MIC [4, 7] | MIC [4, 8] | MIC [4, 9] | MIC ([4]; S. aureus Smith + 30% BS) | MIC ([4]; S. epidermidis ATCC 12228) | MIC ([4]; S. pneumoniae Felton UC41) | MIC [4, 10] | MIC [4, 13] | MIC ([5]; E. coli ATCC25922 ref. strain) | MIC ([5]; Escherichia coli SKF 12140) | MIC ([5]; Proteus vulgaris ATCC 881) | MIC [5, 6] | MIC [3, 14] | also measured |
| --- | --- | --- | --- | --- | --- | --- | --- | --- | --- | --- | --- | --- | --- | --- | --- | --- | --- | --- | --- | --- | --- |
| C[C@@H]1[C@H](O)[C@@H](C)/C=C/C=C/C=C/C=C/C=C/C=C/C=C/[C@H](O[C@@H]2O[C@H](C)[C@@H](O)[C@H](N)[C@@H]2O)C[C@@H]2O[C@](O)(C[C@@H](O)C[C@@H](O)[C@H](O)CC[C@@H](O)C[C@@H](O)CC(=O)O[C@H]1C)C[C@H](O)[C@H]2C(=O)O [Amph. B] | >64 µg/mL | >64 µg/mL | >64 µg/mL | >64 µg/mL | >64 µg/mL | >64 µg/mL | – | – | – | – | – | – | – | – | – | – | – | – | – | – | MIC [2, 8]: >64 µg/mL; MIC [2, 9]: >64 µg/mL; MIC ([2]; S. aureus Smith + 30% BS): >64 µg/mL; MIC ([2]; S. epidermidis ATCC 12228): >64 µg/mL; MIC ([2]; S. pneumoniae Felton UC41): >64 µg/mL; MIC [2, 10]: >64 µg/mL; MIC [2, 11]: 32 µg/mL (≈ 34.6 µM); MIC [3, 12]: 0.125 µg/mL (≈ 0.135 µM) |
| C[C@@H]1[C@H](O)[C@@H](C)/C=C/C=C/C=C/C=C/C=C/C=C/C=C/[C@H](O[C@@H]2O[C@H](C)[C@@H](O)[C@H](N)[C@@H]2O)C[C@@H]2O[C@](O)(C[C@@H](O)C[C@@H](O)[C@H](O)CC[C@@H](O)C[C@@H](O)CC(=O)O[C@H]1C)C[C@H](O)[C@H]2C(=O)O [Amphotericin B] | – | – | – | – | – | – | >64 µg/mL | >64 µg/mL | >64 µg/mL | >64 µg/mL | >64 µg/mL | >64 µg/mL | >64 µg/mL | >64 µg/mL | 32 µg/mL (≈ 34.6 µM) | >64 µg/mL | >64 µg/mL | >64 µg/mL | >64 µg/mL | 0.125 µg/mL (≈ 0.135 µM) | – |
| CN[C@H]1C(=O)N[C@@H]2Cc3ccc(cc3)Oc3cc4cc(c3O[C@@H]3O[C@H](C(=O)O)[C@@H](O)[C@H](O)[C@H]3NC(=O)CCCCCCCC(C)C)Oc3ccc(cc3Cl)[C@@H](O)[C@@H]3NC(=O)[C@H](NC(=O)[C@@H]4NC(=O)[C@@H](NC2=O)c2cc(cc(O)c2Cl)Oc2cc1ccc2O)c1ccc(O)c(c1)-c1c(O[C@H]2O[C@H](CO)[C@@H](O)[C@H](O)[C@@H]2O)cc(O)cc1[C@@H](C(=O)NCCCN(C)C)NC3=O [Composition A0] | – | – | – | – | – | – | ≦0.06 mg/L | ≦0.06 mg/L | 0.125 µg/mL (≈ 0.0693 µM) | 0.125 µg/mL (≈ 0.0693 µM) | 1 µg/mL | 0.125 µg/mL (≈ 0.0693 µM) | 0.125 µg/mL (≈ 0.0693 µM) | 0.125 µg/mL (≈ 0.0693 µM) | 0.015 µg/mL (≈ 0.00832 µM) | >64 µg/mL | >64 µg/mL | >64 µg/mL | >64 µg/mL | >64 µg/mL | – |
| CN[C@H]1C(=O)N[C@@H]2Cc3ccc(cc3)Oc3cc4cc(c3O[C@@H]3O[C@H](C(=O)O)[C@@H](O)[C@H](O)[C@H]3NC(=O)CCCCCCCCC(C)C)Oc3ccc(cc3Cl)[C@@H](O)[C@@H]3NC(=O)[C@H](NC(=O)[C@@H]4NC(=O)[C@@H](NC2=O)c2cc(cc(O)c2Cl)Oc2cc1ccc2O)c1ccc(O)c(c1)-c1c(O[C@H]2O[C@H](CO)[C@@H](O)[C@H](O)[C@@H]2O)cc(O)cc1[C@@H](C(=O)NCCCN(C)C)NC3=O [Composition B0, ristomycin A aglycone, 5,31-dichloro-38-de(methoxycarbonyl)-7-demethyl-19-deoxy-56-O-(2-deoxy-2-((10-methyl-1-oxoundecyl)amino)-beta-D-glucopyranuronosyl)-38-(((3-(dimethylamino)propyl)amino)-carbonyl)-42-O-alpha-D-mannopyranosyl-N^15-methyl-] | – | – | – | – | – | – | ≦0.06 mg/L | 0.125 µg/mL (≈ 0.0688 µM) | 0.125 µg/mL (≈ 0.0688 µM) | 0.125 µg/mL (≈ 0.0688 µM) | 2 µg/mL | ≦0.06 mg/L | ≦0.06 mg/L | 0.25 µg/mL (≈ 0.138 µM) | ≦0.06 mg/L | >64 µg/mL | >64 µg/mL | >64 µg/mL | >64 µg/mL | >64 µg/mL | – |
| CCCCCCCCCCCC(=O)N[C@H]1[C@H](Oc2c3cc4cc2Oc2ccc(cc2Cl)[C@@H](O)[C@@H]2NC(=O)[C@H](NC(=O)[C@@H]4NC(=O)[C@H]4NC(=O)[C@@H](Cc5ccc(cc5)O3)NC(=O)[C@H](NC)c3ccc(O)c(c3)Oc3cc(O)c(Cl)c4c3)c3ccc(O)c(c3)-c3c(O[C@H]4O[C@H](CO)[C@@H](O)[C@H](O)[C@@H]4O)cc(O)cc3[C@@H](C(=O)NCCCN(C)C)NC2=O)O[C@H](C(=O)O)[C@@H](O)[C@@H]1O [Composition B1] | – | – | – | – | – | – | ≦0.06 mg/L | 0.125 µg/mL (≈ 0.0688 µM) | 0.125 µg/mL (≈ 0.0688 µM) | 0.125 µg/mL (≈ 0.0688 µM) | 2 µg/mL | ≦0.06 mg/L | ≦0.06 mg/L | 0.125 µg/mL (≈ 0.0688 µM) | ≦0.06 mg/L | >64 µg/mL | >64 µg/mL | >64 µg/mL | >64 µg/mL | >64 µg/mL | – |
| CC(C)CCCCCCCCC(=O)N[C@H]1[C@H](Oc2c3cc4cc2Oc2ccc(cc2Cl)[C@@H](O)[C@@H]2NC(=O)[C@H](NC(=O)[C@@H]4NC(=O)[C@H]4NC(=O)[C@@H](Cc5ccc(cc5)O3)NC(=O)[C@H](N(C)C)c3ccc(O)c(c3)Oc3cc(O)c(Cl)c4c3)c3ccc(O)c(c3)-c3c(O[C@H]4O[C@H](CO)[C@@H](O)[C@H](O)[C@@H]4O)cc(O)cc3[C@@H](C(=O)NCCCN(C)C)NC2=O)O[C@H](C(=O)O)[C@@H](O)[C@@H]1O [Composition B2, N^15,N^15-dimethyl dalbavancin B0] | – | – | – | – | – | – | – | – | – | – | – | – | – | – | – | – | – | – | – | – | activity across the range of gram-positive bacteria [4]: comparable to or greater than the activity of B0; MIC range ([5]; representative panel of gram-negative bacteria): 16 to 32 µg/mL |
| CC1(C)S[C@@H]2[C@H](NC(=O)Cc3ccccc3)C(=O)N2[C@H]1C(=O)O [Pen. G] | >32 µg/mL | >32 µg/mL | >32 µg/mL | >32 µg/mL | ≦0.03 mg/L | 4 µg/mL (≈ 12 µM) | – | – | – | – | – | – | – | – | – | – | – | – | – | – | MIC [2, 8]: 32 µg/mL (≈ 95.7 µM); MIC [2, 9]: 8 µg/mL (≈ 23.9 µM); MIC ([2]; S. aureus Smith + 30% BS): 0.06 µg/mL; MIC ([2]; S. epidermidis ATCC 12228): >32 µg/mL; MIC ([2]; S. pneumoniae Felton UC41): ≦0.03 mg/L; MIC [2, 10]: 0.06 µg/mL (≈ 0.179 µM); MIC [2, 11]: ≦0.03 mg/L; MIC [3, 12]: >32 µg/mL |
| CC1(C)S[C@@H]2[C@H](NC(=O)Cc3ccccc3)C(=O)N2[C@H]1C(=O)O [Penicillin G] | – | – | – | – | – | – | ≦0.03 mg/L | 4 µg/mL (≈ 12 µM) | 32 µg/mL (≈ 95.7 µM) | 8 µg/mL (≈ 23.9 µM) | 0.06 µg/mL | >32 µg/mL | ≦0.03 mg/L | 0.06 µg/mL (≈ 0.179 µM) | ≦0.03 mg/L | >32 µg/mL | >32 µg/mL | >32 µg/mL | >32 µg/mL | >32 µg/mL | – |
| CN[C@H]1C(=O)N[C@@H]2Cc3ccc(cc3)Oc3cc4cc(c3O[C@@H]3O[C@H](C(=O)O)[C@@H](O)[C@H](O)[C@H]3NC(=O)CCCCCCCCC(C)C)Oc3ccc(cc3Cl)[C@@H](O)[C@@H]3NC(=O)[C@H](NC(=O)[C@@H]4NC(=O)[C@H](NC2=O)c2cc(cc(O)c2Cl)Oc2cc1ccc2O)c1ccc(O)c(c1)-c1c(O[C@H]2O[C@H](CO)[C@@H](O)[C@H](O)[C@@H]2O)cc(O)cc1[C@@H](C(=O)NCCCN(C)C)NC3=O [isoB0] | 64 µg/mL (≈ 35.2 µM) | 64 µg/mL (≈ 35.2 µM) | >64 µg/mL | >64 µg/mL | ≦0.06 mg/L | 0.25 µg/mL (≈ 0.138 µM) | – | – | – | – | – | – | – | – | – | – | – | – | – | – | activity against a panel of gram-positive bacteria [2]: very similar to dalbavancin; MIC [2, 8]: 0.25 µg/mL (≈ 0.138 µM); MIC [2, 9]: 0.25 µg/mL (≈ 0.138 µM); MIC ([2]; S. aureus Smith + 30% BS): 16 µg/mL; MIC ([2]; S. epidermidis ATCC 12228): 0.125 µg/mL (≈ 0.0688 µM); MIC ([2]; S. pneumoniae Felton UC41): 0.125 µg/mL (≈ 0.0688 µM); MIC [2, 10]: 0.5 µg/mL (≈ 0.275 µM); MIC [2, 11]: 0.06 µg/mL (≈ 0.033 µM); MIC [3, 12]: >64 µg/mL |
